Measurements as given in US8410109B2, “Pharmaceutical compositions for the prevention and treatment of complex diseases and their delivery by insertable medical devices” (Resverlogix Corp., priority 2005, dated 2013).
Structures can show the parent of a compound that is named as a salt.

Columns and labels:
Format in all cases: cell-based
[1] = tested on: VCAM-1; experiment: VCAM-1 ELISA on lysates of TNF-α stimulated HUVECs; conditions: Homo sapiens, HUVEC, approx. 16 hours
Protocol: (§1) Compounds were dissolved in DMSO, aliquoted, and stored at −20° C. Cultured human vascular endothelial cells (HUVECs) were seeded in 96-well plates in complete EGM-2 media (˜100 μL/well); cells were plated at ˜2-3×10^5/mL, and were from passage 8 to 12. Cells were incubated overnight. On the following day cells are stimulated with TNF-α (˜1 ng/mL) in the presence or absence of compounds dissolved in DMSO. Triplicate wells were used for each test. To establish a dose curve and an IC50, multiple concentrations in 2- to 5-fold increments were used. Cells were exposed to TNF-α and compounds for approximately 16 hours. The next day, cells were visually examined via light microscopy to score for visual signs of toxicity. Cell culture media was analyzed using an MCP-1 ELISA. Cells were refed (−100 μL/well) with 20% CellTiter 96. Aqueous One Cell Proliferation Solution (Promega), 80% EGM-2 medium. Media optical density (at 490 nm) was determined after 1 hour. Plates were aspirated and cell lysates were prepared and these lysates were tested using a VCAM-1 ELISA.
(§2) In Table 2, a positive result (+) was defined as at least 50% inhibition of the protein levels MCP-1 or VCAM-1, as determined by the ELISA.

[2] = tested on: Human coronary artery smooth muscle cells (CASMCs); experiment: Smooth muscle cell proliferation protocol; conditions: 72 hours, read-out: % Inhibition of SMC Proliferation
Protocol: Compounds were dissolved in DMSO, aliquoted, and stored at −20° C. Human coronary artery smooth muscle cells (CASMCs) were plated in 96-well plates and were grown in SmBM-2 media. After 1-2 hours, media was aspirated and replaced with serum-free ME/F12 media, except the controls. Cells were incubated for a further 48 hours. Compounds were diluted in DME/F12 containing 10% FBS. Media was aspirated from the plates and compounds in DME/F12 containing 10% FBS. Six wells were used per condition and duplicate plates were used. Cells were incubated for a further 72 hours. Media was aspirated from one set of plates; those cells were refed (˜100 μL/well) with 20% CellTiter 96 Aqueous One Cell Proliferation Solution (Promega), 80% EGM-2 medium. Media optical density (at 490 nm) was determined after 3-4 hours. In the second set of plates, serum-free DME/F12 media (20 μL) was added to each well. Part of the supernatant (50 μL) was removed and placed in an ELISA plate and was stored temporarily at 4° C. The remaining media and cells in the second set of plates were freeze-thawed for four cycles. The lysates and supernatants were mixed and centrifuged. Part of the supernatant (50 μL) was removed and placed in an ELISA plate. The Promega Cytotox assay was performed on the ELISA plates. The ratio of supernatant OD to supernatant+cell lysate OD was determined.
In Table 2, a positive result (+) was defined as at least 40% inhibition of the proliferation of SMC, as determined by the assay.

[3] = tested on: MCP-1; experiment: MCP-1 ELISA on culture media of TNF-α stimulated HUVECs; conditions: Homo sapiens, HUVEC, approx. 16 hours
Protocol: as §1, §2

SMILES	inhibition at 50 µM [1]	inhibition at 50 µM [2]	inhibition at 50 µM [3]	also measured
Cc1cc(-c2cc(=O)c3cccnc3o2)cc(C)c1OCCN1CCOCC1 [EXAMPLE 31, 2-(3,5-dimethyl-4-(2-morpholinoethoxy)phenyl)-4H-pyrano[2,3-b]pyridin-4-one hydrochloride]	≥ 50%	≥ 40%	< 50%	–
O=c1cc(-c2ccccc2)oc2ncc(CN3CCCC3)cc12 [EXAMPLE 35, 2-phenyl-6-(pyrrolidin-1-ylmethyl)-4H-pyrano[2,3-b]pyridin-4-one hydrochloride]	< 50%	≥ 40%	< 50%	–
O=c1cc(-c2ccncc2)oc2ccccc12 [EXAMPLE 12, 2-Pyridin-4-yl-chromen-4-one]	≥ 50%	≥ 40%	≥ 50%	–
Cc1cc(-c2cc3ncccc3c(=O)[nH]2)cc(C)c1O [EXAMPLE 40, 7-(4-hydroxy-3,5-dimethylphenyl)-1,6-naphthyridin-5(6H)-one hydrochloride]	< 50%	≥ 40%	< 50%	–
CO[C@H]1C[C@@H]2CC[C@@H](C)[C@@](O)(O2)C(=O)C(=O)N2CCCC[C@H]2C(=O)O[C@H]([C@H](C)C[C@@H]2CC[C@@H](O)[C@H](OC)C2)CC(=O)[C@H](C)/C=C(\C)[C@@H](O)[C@@H](OC)C(=O)[C@H](C)C[C@H](C)/C=C/C=C/C=C/1C [Rapamycin, rapamycin, reference compound]	–	43%	–	–
CC(C)Oc1ccc(-c2cc(=O)c3cc(CN4CCCC4)cnc3o2)cc1 [EXAMPLE 39, 2-(4-isopropoxyphenyl)-6-(pyrrolidin-1-ylmethyl)-4H-pyrano[2,3-b]pyridinone hydrochloride]	≥ 50%	≥ 40%	≥ 50%	–
O=c1cc(-c2ccc(O)cc2)oc2cccnc12 [EXAMPLE 2, 2-(4-Hydroxy-phenyl)-pyrano[3,2-b]pyridin-4-one]	< 50%	≥ 40%	< 50%	–
COc1cc(OC)c2c(=O)[nH]c(-c3cc(C)c(OCCN4CCOCC4)c(C)c3)cc2c1 [EXAMPLE 48, 3-(3,5-dimethyl-4-(2-morpholinoethoxy)phenyl)-6,8-dimethoxyisoquinolin-1(2H)-one]	≥ 50%	≥ 40%	< 50%	–
COc1cc(O)nc2cc(-c3cc(C)c(O)c(C)c3)[nH]c(=O)c12 [EXAMPLE 41, 2-hydroxy-7-(4-hydroxy-3,5-dimethylphenyl)-4-methoxy-1,6-naphthyridin-5(6H)-one dihydrochloride]	≥ 50%	≥ 40%	≥ 50%	–
O=c1cc(-c2ccc(O)cc2)oc2ncccc12 [EXAMPLE 1, 2-(4-Hydroxy-phenyl)-pyrano[2,3-b]pyridin-4-one]	≥ 50%	< 40%	< 50%	–
CC(C)(Sc1cc(C(C)(C)C)c(O)c(C(C)(C)C)c1)Sc1cc(C(C)(C)C)c(O)c(C(C)(C)C)c1 [Probucol, probucol, reference compound]	–	–	–	inhibition at 10 µM [1]: 19%; inhibition at 10 µM [3]: 15%
CN(C)Cc1ccc2c(=O)cc(-c3ccc(O)cc3)oc2n1 [EXAMPLE 26, 7-((dimethylamino)methyl-2-(4-hydroxyphenyl)-4H-pyrano[2,3-b]pyridin-4-one dihydrochloride]	< 50%	≥ 40%	< 50%	–
CN(C)CCOc1ccc(-c2cc(=O)c3cccnc3o2)cc1 [EXAMPLE 27, 2-(4-(2-(dimethylamino)ethoxy)phenyl)-4H-pyrano[2,3-b]pyridin-4-one dihydrochloride]	< 50%	≥ 40%	< 50%	–
COc1cc(OC)c2c(=O)cc(-c3ccncc3)oc2c1 [EXAMPLE 34, 5,7-dimethoxy-2-(pyridin-4-yl)-4H-chromen-4-one hydrochloride]	< 50%	≥ 40%	< 50%	–
CNc1nc(-c2cc(C)c(O)c(C)c2)cc2ccc(CN3CCN(C)CC3)cc12 [EXAMPLE 43, 2,6-dimethyl-4-(1-(methylamino)-7-((4-methylpiperazin-1-yl)methyl)isoquinolin-3-yl)phenol trihydrochloride]	≥ 50%	≥ 40%	≥ 50%	–
O=c1cc(-c2ccc(F)cc2)oc2ncc(CN3CCCC3)cc12 [EXAMPLE 37, 2-(4-fluorophenyl)-6-(pyrrolidin-1-ylmethyl)-4H-pyrano[2,3-b]pyridin-4-one hydrochloride]	≥ 50%	≥ 40%	< 50%	–
Nc1ccc(-c2cc(=O)c3cccnc3o2)cc1 [EXAMPLE 38, 2-(4-aminophenyl)-4H-pyrano[2,3-b]pyridin-4-one hydrochloride]	< 50%	≥ 40%	< 50%	–
CC(C)(Sc1cc(C(C)(C)C)c(O)c(C(C)(C)C)c1)Sc1cc(C(C)(C)C)c(OC(=O)CCC(=O)O)c(C(C)(C)C)c1 [AGI1067, reference compound]	–	–	–	inhibition at 5 µM ([1]; 5 uM): 68%; inhibition at 5 µM ([3]; 5 uM): 60%
Cc1cccc2oc(-c3ccncc3)cc(=O)c12 [EXAMPLE 49, 5-methyl-2-(pyridin-yl)-4H-chromen-4-one]	–	–	–	inhibition at 10 µM [1]: < 50%; inhibition at 10 µM [2]: < 40%; inhibition at 10 µM [3]: < 50%
Cc1cc(-c2cc(=O)c3cc(CN4CCCC4)cnc3o2)cc(C)c1O [EXAMPLE 33, 2-(4-hydroxy-3,5-dimethylphenyl)-6-(pyrrolidin-1-ylmethyl)-4H-pyrano[2,3-b]pyridin-4-one dihydrochloride]	< 50%	≥ 40%	≥ 50%	–
O=c1cc(-c2ccc(O)cn2)oc2ccccc12 [EXAMPLE 11, 2-(5-Hydroxy-pyridin-2-yl)chromen-4-one]	< 50%	< 40%	< 50%	–
CC(=O)O[C@H]1C(=O)[C@@]2(C)[C@H]([C@H](OC(=O)c3ccccc3)[C@]3(O)C[C@H](OC(=O)[C@H](O)[C@@H](NC(=O)c4ccccc4)c4ccccc4)C(C)=C1C3(C)C)[C@]1(OC(C)=O)CO[C@@H]1C[C@@H]2O [Taxol, taxol, reference compound]	–	–	–	inhibition at 0.1 µM ([2]; 100 nM): 19%
O=C1C=C(c2ccc(O)cc2)C(=O)c2ccccc21 [EXAMPLE 20, 2-(4-Hydroxy-phenyl)-[1,4]naphthoquinone]	–	–	–	inhibition at 10 µM [1]: ≥ 50%; inhibition at 10 µM [2]: < 40%; inhibition at 10 µM [3]: < 50%
O=c1cc(-c2ccc(O)cc2)[nH]c2ccccc12 [EXAMPLE 14, 2-(4-Hydroxy-phenyl)-1H-quinolin-4-one]	≥ 50%	< 40%	≥ 50%	–
O=c1cc(-c2ccncc2)oc2cccc(CO)c12 [EXAMPLE 51, 5-(hydroxymethyl)-2-(pyridin-4-yl)-4H-chromen-4-one]	< 50%	< 40%	< 50%	–
O=c1cc(-c2ccncc2)oc2ncccc12 [EXAMPLE 30, 2-(pyridin-4-yl)-4H-pyrano[2,3-b]pyridin-4-one hydrochloride]	< 50%	≥ 40%	< 50%	–
Oc1ccc(C=Cc2cc(O)cc(O)c2)cc1 [Resveratrol, resveratrol, reference compound]	54%	–	47%	–
